Values of other authors, collected in patent US20130324497A1, “COMPOSITIONS AND METHODS FOR TREATING HEPATITIS B VIRUS INFECTION” (priority 2012, published 2013).
Entries after “also recorded” stand apart in the source; their conditions may differ. Like-named read-outs stand apart in the source and are kept apart here.

Legend:
[1] = tested on: HBV mutants resistant to lamivudine
hepatitis B virus = conditions: for cumulative rate of resistance: 5 years
[2] = in vivo

Compound	susceptibility of lamivudine-resistant mutants [1]	5-year resistance rate (hepatitis B virus; 5-year, monotherapy)	adefovir-associated nephrotoxicity, patients [2]	cumulative rate of resistance (hepatitis B virus; HBeAg negative patients)	cumulative rate of resistance (hepatitis B virus; HBeAg positive patients)
Nc1ncnc2c1ncn2CCOCP(=O)(O)O [adefovir]	retain susceptibility; also recorded: remain susceptible	20-30%			
CC(C)(C)C(=O)OCOP(=O)(COCCn1cnc2c(N)ncnc21)OCOC(=O)C(C)(C)C [adefovir dipivoxil, 9-[2-[[bis[(pivaloyloxy)methoxy]-phosphinyl]-methoxy]ethyl]adenine]			up to 47%	~29%	about 20%
